Experiments:
[1] = tested on: MDA-MB-231 cells implanted in zebrafish larvae; experiment: Zebrafish xenograft model of MDAMB231 (primary tumor and metastasis); type: in vivo
Protocol: Transgenic Tg(fli1:EGFP)y1 zebrafish embryos were raised at 28° C. for 48 hours in E3 embryo medium 0.2 mM 1-Phenyl-2-Thiourea aka PTU. […] MDA-MB-231 cells were labeled with Dil red fluorescent dye. Approximately 700 Dil Labeled cancer cells were subcutaneously co-implanted into the perivitelline space of 2 days old larvae ± 3-NantC peptide at […]. Larvae in which tumor cells had been inadvertently injected into circulation or larvae with erroneous implantation of the tumor in the yolk rather than the perivitelline space were excluded from the study. Selected tumor bearing embryos were sorted into experimental groups (20 embryos/group), and pictures of primary tumors were taken right after injection. Doxorubicin treatment was added to embryo water at 2.5 µg/mL according to the study plan. Tumor-bearing embryos were incubated in E3/PTU medium for 72 h at 36° C. After incubation, pictures of the primary tumors and the CVP were taken using a red fluorescent filter. Larvae that died or were lost by other means during the study were excluded from the final analysis.
Images obtained right after implantation (day 0) and after 72 h incubation (day 3) were analyzed by using in-house developed software. Tumor growth regression was calculated and normalized to the negative control group. The number of metastasized cells was counted manually. One-way ANOVA was performed followed by two-tailed Student’s t-test. Definitive outliers were detected using the ROUT method with a Q=1%. Graphs and example images, and experimental data were obtained/analyzed by using GraphPad Prism v9.0.2.

[2] = tested on: Triple negative breast tumor cells (MDAMB231); experiment: Observation of triple negative breast tumor cells after treatment (FIG. 3/4); type: cell-based; conditions: MDAMB231, treated for 24 h
Protocol: FIG. 3 illustrates the untreated triple negative tumor cells, presented in large numbers.
FIG. 4 illustrates the tumor cells after being treated with the peptide 3-NantC (SEQ ID 1) for 24h. The arrows indicate the tumor cells, which are shown in smaller numbers and with vesicles when compared with the untreated tumor cells.

[3] = tested on: MDAMB231 cell line; experiment: Apoptosis/necrosis flow cytometry (Annexin V-FITC / propidium iodide); type: cell-based
Text: Annexin V is a potent marker for apoptosis since it binds to the phosphatidylserine of the cell membrane. This binding only occurs when the phosphatidylserine is externalized in the membrane, which is one of the first signals of apoptosis death. Meanwhile propidium iodide only enters the cells after a membrane rupture and can indicate a final step to cell death. The double labeling with these markers allows to distinguish apoptosis and necrosis death through the following characterization: • Annexin V^- / Pl^-: live cells • Annexin V^+ / Pl^-: cells in early apoptosis • Annexin V^+ / Pl^+: cell in late apoptosis • Annexin V^- / Pl^+: cells in necrosis
For Apoptosis/ Necrosis protocol, cells were plated 6-well sterile plates for cell culture with a cap at the density of 2.5 × 10^5 cells/well for treatments lasting 24 h or more, completing the volume with 1000 µL culture medium. The plates were incubated for 8-16 h in an incubator at 37° C. and 5% CO2. The next day, the treatments were prepared in culture medium, applying 2000 µL/well at the desired concentration, and the plate was placed in an incubator at 37° C. and 5% CO2 for the duration of treatment. After the treatment period, cells were collected in a conic 15 mL tube and washed with 200 µL of binding buffer (1×) from the FITC Annexin V Apoptosis Detection Kit I. Cells were resuspended in 100 µL/tube of binding buffer (1×) and 1 µL of Annexin V-FITC was added to each tube except the blank. Cells were then incubated for 20 min. in ice and in the dark. Then, 50 µL/tube of binding buffer was added and cells were labeled with 2 µL of Propidium Iodide (PI) at 100 µg/mL and read at the flow cytometer for size and fluorescent content (FITC and PI).
(§1) In order to determine the effects of the peptide in LDH release, autophagy induction and apoptosis/necrosis profile of MDAMB231 cell line, the Analysis of Variance (ANOVA) with Dunnet and Bonferroni post-hoc tests were applied to the significance of 5% in GraphPad Prism software version 6.0.

[4] = tested on: MDAMB231 cells; experiment: Lactate dehydrogenase (LDH) release; type: cell-based; conditions: MDAMB231, 24, 48 and 72 h
Protocol: The lactate dehydrogenase (LDH) is a cytosolic enzyme present in most mammalian cells.
For LDH release protocol, after treatments were performed for the MTT protocol, 20 µL of the supernatant of each well was transferred to an EIA/RIA plate. Then, 20 µL/well of the Reaction Mixture from the CyQUANT™ LDH Cytotoxicity Assay kit and reaction was incubated at RT for 30 minutes in the dark. Then, 60 µL/well of the Stop Solution from the kit was added and plate was read in a spectrophotometer at both 490 nm and 650 nm.
The calculation of LDH release was performed as follows: • 1. The absorbance measured at 650 nm was subtracted from the absorbance measured at 490 nm. • 2. This formula was applied: […]
O.D.: optical density captured by spectrophotometer NOTE: The Basal O.D. is the one found in the blank wells (only reaction mixture and stop solution).
as §1

[5] = tested on: benign skin cells - fibroblasts (HDFa); experiment: MTT cell viability, benign fibroblasts; type: cell-based; conditions: HDFa fibroblasts, 24, 48 and 72 h
Protocol: For the method of MTT, the cells were plated in 96-well sterile plates for cell culture with a cap at the density of 2 × 10^4 cells/well for treatments lasting 24 h and 1 × 10^4 cells/well for treatments lasting 48 h or more, completing the volume to 100 µL with culture medium. The plates were incubated for 8-16 h in an incubator at 37° C. and 5% CO2. The next day, the treatments were prepared in culture medium, applying 200 µL/well at the desired concentration, and the plates were placed in an incubator at 37° C. and 5% CO2for the duration of treatment. After the treatment period, 20 µL/well of a MTT solution was added in PBS (1×) at a concentration of 5 mg/mL, and the dye was incubated at 37° C. and 5% CO2 for 2.5 h. After incubation with MTT, Formazan salts were solubilized with the addition of 200 µL of dimethylsulfoxide solution (DMSO): isopropanol (3:1) and agitated for at least 15 minutes at room temperature. After complete dissolution of the salts, the absorbance was read in a spectrophotometer at 570 nm with endpoint protocol.
The calculation of cell viability was performed using the formula: […]
O.D.: optical density captured by spectrophotometer
NOTE: The Basal O.D. is the one found in the blank wells. […]

**Q.** CSCC[C@H](N)C(=O)N[C@@H](Cc1ccccc1)C(=O)N[C@@H](Cc1ccc(O)cc1)C(=O)N1CCC[C@H]1C(=O)N[C@@H](CC(=O)O)C(=O)N[C@@H](CO)C(=O)N[C@@H](CCCNC(=N)N)C(=O)N[C@@H](CS)C(=O)N[C@@H](CCCNC(=N)N)C(=O)NCC(=O)N1CCC[C@H]1C(=O)N[C@@H](CO)C(=O)N[C@@H](CCC(=O)O)C(=O)N[C@H](C(=O)O)[C@@H](C)O [3-NAntC, [H]-MFYPDSRCRGPSET-[OH]] was tested. Which “decrease of metastatic cells” value ([1]; 75 and 125 mg/mL) did it give?
**A.** The value was “about 60%”.

**Q.** What about the “decrease of tumor cells (primary tumor)” value ([1]; 72 h, 3-NantC co-implanted at 75, 100 or 125 mg/mL, Doxorubicin 2.5 µg/mL in embryo water) of the same compound?
**A.** The value was 75%.

**Q.** And the “decrease in metastatic cells” value ([1]; very low concentrations (FIG. 17))?
**A.** The value was “about 40%”.

**Q.** What about the “number of tumor cells compared to no treatment” value [2] of the same compound?
**A.** Its value is “lower numbers”.

**Q.** What about the “number of vesicles compared to no treatment” value [2] of the same compound?
**A.** The value was “greater number of vesicles”.

**Q.** And the “percentage of cells in necrosis” value ([3]; MDAMB231, 24 and 48 h, 0.8 µg/mL)?
**A.** Its value is “maintaining the percentage of cells in necrosis”.

**Q.** What about the “increase of apoptosis rate” value ([3]; MDAMB231, 24 h, 0.8 µg/mL) of the same compound?
**A.** Its value is “about 20%”.

**Q.** What about the “increase of apoptosis rate” value ([3]; MDAMB231, 48 h, 0.8 µg/mL) of the same compound?
**A.** The value was “about 20%”.

**Q.** What about the “increase of apoptosis rate” value ([3]; MDAMB231, 72 h, highest dosage) of the same compound?
**A.** Its value is 28.73%.

**Q.** And the LDH release [4]?
**A.** The LDH release was “does not show any significant increase”.

**Q.** What about the “effect on viability of benign skin cells (MTT)” value [5] of the same compound?
**A.** Its value is “not decreasing the viability”.

From US20230364204A1, “Bioactive Peptides, Compositions, Production Process, and Use of Bioactive Peptides as Anti-Tumoral Agents” (priority 2022, published 2023)
